# ChEMBL document CHEMBL5113418, “Discovery of precision targeting EZH2 degraders for triple-negative breast cancer” (Eur J Med Chem, 2022)
# Calls of active or inactive are those of the source. The rule behind the calls is not given here.
# Columns and labels:
# MDA-MB-231 [1] = experiment: Antiproliferative activity against human MDA-MB-231 cells assessed as cell growth inhibition incubated for 72 hrs by MTT assay; format: functional, cell-based; details: MDA-MB-231, 72 h
# MDA-MB-468 [2] = experiment: Antiproliferative activity against human MDA-MB-468 cells assessed as cell growth inhibition incubated for 72 hrs by MTT assay; format: functional, cell-based; details: MDA-MB-468, 72 h
# BT-549 = experiment: Antiproliferative activity against human BT-549 cells assessed as cell growth inhibition incubated for 72 hrs by MTT assay; format: functional, cell-based; details: BT-549, 72 h
# MCF7 = experiment: Antiproliferative activity against human MCF7 cells assessed as cell growth inhibition incubated for 72 hrs by MTT assay; format: functional, cell-based; details: MCF7, 72 h
# HL-60 = experiment: Antiproliferative activity against human HL-60 cells assessed as cell growth inhibition incubated for 72 hrs by MTT assay; format: functional, cell-based; details: HL-60, 72 h
# [3] = Antiproliferative activity against human MCF-10A cells assessed as cell growth inhibition incubated for 72 hrs by MTT assay; format: toxicity, cell-based
# MV4-11 = experiment: Antiproliferative activity against human MV4-11 cells assessed as cell growth inhibition incubated for 72 hrs by MTT assay; format: functional, cell-based; details: MV4-11, 72 h
# [4] = Antiproliferative activity against human L02 cells assessed as cell growth inhibition incubated for 72 hrs by MTT assay; format: toxicity, cell-based
# [5] = Antiproliferative activity against human HK-2 cells assessed as cell growth inhibition incubated for 72 hrs by MTT assay; format: toxicity, cell-based
# Homo sapiens = species: Homo sapiens; experiment: Binding affinity to recombinant PRC2 complex (unknown origin) assessed as association rate constant by surface plasmon resonance assay
# [6] = Binding affinity to recombinant PRC2 complex (unknown origin) assessed as dissociation rate constant by surface plasmon resonance assay; set-up: species or system Homo sapiens
# [7] = Binding affinity to recombinant PRC2 complex (unknown origin) assessed as Equilibrium dissociation constant by surface plasmon resonance assay; set-up: species or system Homo sapiens
# [8] = biological target: T1, Protein cereblon/Histone-lysine N-methyltransferase EZH2 (Homo sapiens) (UniProt Q15910+Q96SW2); experiment: PROTAC activity at E3 ubiquitin ligase/EZH2 in human MDA-MB-468 cells assessed as induction of EZH2 degradation at 1 uM incubated for 48 hrs by western blot analysis; format: cell-based
# T1 sequence (Q15910 whole entry, looked up): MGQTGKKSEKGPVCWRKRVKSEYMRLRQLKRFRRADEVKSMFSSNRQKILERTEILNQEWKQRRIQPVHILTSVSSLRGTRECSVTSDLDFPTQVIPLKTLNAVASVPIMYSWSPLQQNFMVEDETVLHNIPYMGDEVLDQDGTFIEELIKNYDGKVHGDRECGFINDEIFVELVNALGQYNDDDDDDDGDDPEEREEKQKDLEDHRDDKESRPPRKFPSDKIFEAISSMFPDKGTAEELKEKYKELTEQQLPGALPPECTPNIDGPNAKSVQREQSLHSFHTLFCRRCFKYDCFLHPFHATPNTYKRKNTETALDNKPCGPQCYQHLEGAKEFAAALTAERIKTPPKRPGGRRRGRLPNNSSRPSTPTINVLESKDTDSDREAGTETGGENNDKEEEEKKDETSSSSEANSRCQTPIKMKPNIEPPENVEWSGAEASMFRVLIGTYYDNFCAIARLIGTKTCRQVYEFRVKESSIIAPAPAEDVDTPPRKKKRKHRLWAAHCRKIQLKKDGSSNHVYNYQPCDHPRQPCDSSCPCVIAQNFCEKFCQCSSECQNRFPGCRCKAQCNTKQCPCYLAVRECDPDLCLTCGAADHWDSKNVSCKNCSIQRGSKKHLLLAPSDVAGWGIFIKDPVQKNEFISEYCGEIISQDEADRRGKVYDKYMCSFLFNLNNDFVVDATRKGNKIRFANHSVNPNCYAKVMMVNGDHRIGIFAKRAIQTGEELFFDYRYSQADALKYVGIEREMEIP
# T1 sequence (Q96SW2 whole entry, looked up): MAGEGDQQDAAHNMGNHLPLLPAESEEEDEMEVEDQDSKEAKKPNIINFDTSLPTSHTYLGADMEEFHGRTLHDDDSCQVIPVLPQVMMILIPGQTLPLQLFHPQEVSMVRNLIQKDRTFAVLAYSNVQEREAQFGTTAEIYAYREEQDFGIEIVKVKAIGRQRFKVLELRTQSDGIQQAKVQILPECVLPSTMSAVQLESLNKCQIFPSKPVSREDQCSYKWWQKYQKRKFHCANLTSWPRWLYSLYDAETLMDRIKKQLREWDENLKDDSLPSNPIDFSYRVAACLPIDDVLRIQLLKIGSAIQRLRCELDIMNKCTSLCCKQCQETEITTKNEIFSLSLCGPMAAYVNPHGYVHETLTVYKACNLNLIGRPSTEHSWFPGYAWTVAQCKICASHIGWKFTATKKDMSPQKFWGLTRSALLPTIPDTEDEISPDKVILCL
# [9] = biological target: T1, Protein cereblon/Histone-lysine N-methyltransferase EZH2 (Homo sapiens); experiment: PROTAC activity at E3 ubiquitin ligase/EZH2 in human MDA-MB-231 cells assessed as induction of EZH2 degradation at 0.125 to 1 uM incubated for 48 hrs by western blot analysis; format: cell-based; details: dose 0.125-1 µM, DDE = dose-dependent effect
# [10] = biological target: T1, Protein cereblon/Histone-lysine N-methyltransferase EZH2 (Homo sapiens); experiment: PROTAC activity at E3 ubiquitin ligase/EZH2 in human MDA-MB-231 cells assessed as induction of SUZ12 degradation at 0.125 to 1 uM incubated for 48 hrs by western blot analysis; format: cell-based; details: dose 0.125-1 µM, DDE = dose-dependent effect
# [11] = biological target: T1, Protein cereblon/Histone-lysine N-methyltransferase EZH2 (Homo sapiens); experiment: PROTAC activity at E3 ubiquitin ligase/EZH2 in human MDA-MB-231 cells assessed as induction of EED degradation at 0.125 to 1 uM incubated for 48 hrs by western blot analysis; format: cell-based; details: dose 0.125-1 µM, DDE = dose-dependent effect
# [12] = biological target: T1, Protein cereblon/Histone-lysine N-methyltransferase EZH2 (Homo sapiens); experiment: PROTAC activity at E3 ubiquitin ligase/EZH2 in human MDA-MB-468 cells assessed as induction of EZH2 degradation at 0.125 to 1 uM incubated for 48 hrs by western blot analysis; format: cell-based; details: dose 0.125-1 µM, DDE = dose-dependent effect
# [13] = biological target: T1, Protein cereblon/Histone-lysine N-methyltransferase EZH2 (Homo sapiens); experiment: PROTAC activity at E3 ubiquitin ligase/EZH2 in human MDA-MB-468 cells assessed as induction of SUZ12 degradation at 0.125 to 1 uM incubated for 48 hrs by western blot analysis; format: cell-based; details: dose 0.125-1 µM, DDE = dose-dependent effect
# [14] = biological target: T1, Protein cereblon/Histone-lysine N-methyltransferase EZH2 (Homo sapiens); experiment: PROTAC activity at E3 ubiquitin ligase/EZH2 in human MDA-MB-468 cells assessed as induction of EED degradation at 0.125 to 1 uM incubated for 48 hrs by western blot analysis; format: cell-based; details: dose 0.125-1 µM, DDE = dose-dependent effect
# [15] = biological target: T1, Protein cereblon/Histone-lysine N-methyltransferase EZH2 (Homo sapiens); experiment: PROTAC activity at E3 ubiquitin ligase/EZH2 in human MDA-MB-468 cells assessed as induction of EZH2 degradation at 1 uM incubated for 12 to 48 hrs by western blot analysis; format: cell-based; details: time 12-48 hrs
# [16] = biological target: T1, Protein cereblon/Histone-lysine N-methyltransferase EZH2 (Homo sapiens); experiment: PROTAC activity at E3 ubiquitin ligase/EZH2 in human MDA-MB-468 cells assessed as increase in EZH1 expression at 0.25 to 0.75 uM incubated for 48 hrs by western blot analysis; format: cell-based; details: dose 0.25-0.75 µM
# [17] = biological target: T1, Protein cereblon/Histone-lysine N-methyltransferase EZH2 (Homo sapiens); experiment: PROTAC activity at E3 ubiquitin ligase/EZH2 in human MDA-MB-468 cells assessed as decrease in CARM1 expression at 0.25 to 0.75 uM incubated for 48 hrs by western blot analysis; format: cell-based; details: dose 0.25-0.75 µM
# [18] = biological target: T1, Protein cereblon/Histone-lysine N-methyltransferase EZH2 (Homo sapiens); experiment: PROTAC activity at E3 ubiquitin ligase/EZH2 in human MDA-MB-468 cells assessed as decrease in H3K27me3 expression at 0.25 to 0.75 uM incubated for 48 hrs by western blot analysis; format: cell-based; details: dose 0.25-0.75 µM
# MDA-MB-231 [19] = experiment: Antiproliferative activity against human MDA-MB-231 cells assessed as colony growth inhibition at 0.25 to 0.75 uM incubated for 48 hrs by crystal violet staining method; format: functional, cell-based; details: dose 0.25-0.75 µM
# MDA-MB-468 [20] = experiment: Antiproliferative activity against human MDA-MB-468 cells assessed as colony growth inhibition at 0.25 to 0.75 uM incubated for 48 hrs by crystal violet staining method; format: functional, cell-based; details: dose 0.25-0.75 µM
# MDA-MB-468 [21] = experiment: Antiproliferative activity against human MDA-MB-468 cells assessed as reduction in EdU positive cells at 0.25 to 0.75 uM incubated for 48 hrs by EdU incorporation assay; format: functional, cell-based; details: dose 0.25-0.75 µM
# MDA-MB-231 [22] = experiment: Induction of apoptosis in human MDA-MB-231 cells assessed as increase in apoptotic cells at 0.25 to 0.75 uM incubated for 48 hrs by Annexin V-PE and 7AAD staining based flow cytometry; format: functional, cell-based; details: dose 0.25-0.75 µM
# MDA-MB-468 [23] = experiment: Induction of apoptosis in human MDA-MB-468 cells assessed as increase in apoptotic cells at 0.25 to 0.75 uM incubated for 48 hrs by Annexin V-PE and 7AAD staining based flow cytometry; format: functional, cell-based; details: dose 0.25-0.75 µM
# MDA-MB-231 [24] = experiment: Induction of apoptosis in human MDA-MB-231 cells assessed as increase in reduction in mitochondrial membrane potential at 0.25 to 0.75 uM incubated for 48 hrs by JC-1 staining based flow cytometry analysis; format: functional, cell-based; details: dose 0.25-0.75 µM
# MDA-MB-468 [25] = experiment: Induction of apoptosis in human MDA-MB-468 cells assessed as increase in reduction in mitochondrial membrane potential at 0.25 to 0.75 uM incubated for 48 hrs by JC-1 staining based flow cytometry analysis; format: functional, cell-based; details: dose 0.25-0.75 µM
# MDA-MB-468 [26] = experiment: Induction of apoptosis in human MDA-MB-468 cells assessed as increase in Bax expression at 0.25 to 0.75 uM incubated for 48 hrs by western blot analysis; format: functional, cell-based; details: dose 0.25-0.75 µM
# MDA-MB-468 [27] = experiment: Induction of apoptosis in human MDA-MB-468 cells assessed as decrease in Bcl-2 expression at 0.25 to 0.75 uM incubated for 48 hrs by western blot analysis; format: functional, cell-based; details: dose 0.25-0.75 µM
# MDA-MB-468 [28] = experiment: Induction of apoptosis in human MDA-MB-468 cells assessed as increase in cleaved caspase-3 expression at 0.25 to 0.75 uM incubated for 48 hrs by western blot analysis; format: functional, cell-based; details: dose 0.25-0.75 µM
# MDA-MB-468 [29] = experiment: Induction of apoptosis in human MDA-MB-468 cells assessed as increase in PARP expression at 0.25 to 0.75 uM incubated for 48 hrs by western blot analysis; format: functional, cell-based; details: dose 0.25-0.75 µM
# [30] = biological target: T1, Protein cereblon/Histone-lysine N-methyltransferase EZH2 (Homo sapiens); experiment: PROTAC activity at E3 ubiquitin ligase/EZH2 in human MDA-MB-468 cells assessed as reduction on EZH2 expression at 0.75 uM incubated for 24 hrs by proteomic analysis; format: cell-based
# [31] = biological target: T1, Protein cereblon/Histone-lysine N-methyltransferase EZH2 (Homo sapiens); experiment: PROTAC activity at E3 ubiquitin ligase/EZH2 in human MDA-MB-468 cells assessed as reduction on SUZ12 expression at 0.75 uM incubated for 24 hrs by proteomic analysis; format: cell-based
# [32] = biological target: T1, Protein cereblon/Histone-lysine N-methyltransferase EZH2 (Homo sapiens); experiment: PROTAC activity at E3 ubiquitin ligase/EZH2 in human MDA-MB-468 cells assessed as reduction on EED expression at 0.75 uM incubated for 24 hrs by proteomic analysis; format: cell-based
structure (smiles),measurement,setting,value
Cc1cc(C)c(CNC(=O)c2cc(-c3ccc(N4CCN(C(=O)CCCCCCCCc5cn(CCOCCOCCOCCOCCOCCOCCNc6cccc7c6C(=O)N(C6CCC(=O)NC6=O)C7=O)nn5)CC4)nc3)cc3c2cnn3C(C)C)c(=O)[nH]1 (configuration not stated),IC50,MDA-MB-231 [1],570 nM
same,IC50,MDA-MB-468 [2],380 nM
same,IC50,BT-549,400 nM
same,IC50,MCF7,18000 nM
same,IC50,HL-60,1080 nM
same,IC50 at 72 h,[3],> 40000 nM
same,IC50,MV4-11,740 nM
same,IC50 at 72 h,[4],> 40000 nM
same,IC50 at 72 h,[5],> 40000 nM
same,Ka,Homo sapiens,5.7 10^6/Ms
same,koff,[6],0.09231 s⁻¹
same,Kd,[7],16.2 nM
same,Activity,[8],Active
same,Activity,[9],Dde
same,Activity,[10],Dde
same,Activity,[11],Dde
same,Activity,[12],Dde
same,Activity,[13],Dde
same,Activity,[14],Dde
same,Activity,[15],Active
same,Activity,[16],Active
same,Activity,[17],Active
same,Activity,[18],Active
same,Activity,MDA-MB-231 [19],Active
same,Activity,MDA-MB-468 [20],Active
same,Activity,MDA-MB-468 [21],Active
same,Activity,MDA-MB-231 [22],Active
same,Activity,MDA-MB-468 [23],Active
same,Activity,MDA-MB-231 [24],Active
same,Activity,MDA-MB-468 [25],Active
same,Activity,MDA-MB-468 [26],Active
same,Activity,MDA-MB-468 [27],Active
same,Activity,MDA-MB-468 [28],Active
same,Activity,MDA-MB-468 [29],Active
same,Activity,[30],Active
same,Activity,[31],Active
same,Activity,[32],Active
